The values below come from patent publication US7829063B2, “Development of molecular imaging probes for carbonic anhydrase-IX using click chemistry” (Siemens Medical Solutions USA, Inc., priority 2007, dated 2010).

The structures appear in SMILES notation.

The target of one experiment is T1, CA-IX (Homo sapiens, UniProt Q16790).
T1 construct: His tag (C); purchased R&D Systems Inc. 2188-CA; host or cells: mouse myeloma cell line NS0
The experiment is described as follows: CA-IX combinatorial library screening, competitive fluorescence-based assay with dansylamide (DNSA). The format is binding. The following applies: 1 h; Table 1, Libraries 1-3; sample concentrations 100 nM and 1000 nM, DNSA 200 μM; screening at 1 μM; read-out: In Vitro Binding Assay (Library Screening). The procedure, abridged: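 Recombinant His-tagged CA-IX (NS0-expressed) in phosphate buffer pH 7.4 with test compound at 100 nM or 1000 nM; competitive displacement started with 200 μM dansylamide (stock concentration). After 1 h at 25 °C, fluorescence read at 460 nm (excitation 290 nm).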
Take `CC(C)C[C@@H](C(=O)NCc1ccccc1)n1cc(COc2ccc3nc(S(N)(=O)=O)sc3c2)nn1` [DIIK118]: the inhibition at 1 µM is below 40%.

Still in this experiment, the particulars now being: 1 h; Table 2, Libraries 4-7; sample concentrations 100 nM and 1000 nM, DNSA 200 μM; screening at 1 μM; read-out: In Vitro Binding Assay (Library (Screening)).
For the molecule `CCOC(=O)C(Cc1ccccc1)NC(=O)[C@H](Cc1ccccc1)n1cc(COc2ccc3nc(S(N)(=O)=O)sc3c2)nn1` (stereo partly drawn) [DHK-2-59], the inhibition at 1 µM was below 40%.
On the same count and under the same terms, the same measure for `COC(=O)C(NC(=O)[C@H](Cc1ccccc1)n1cc(COc2ccc3nc(S(N)(=O)=O)sc3c2)nn1)C(C)C` (stereo partly drawn) [DHK-2-60]: below 40%; for `NS(=O)(=O)c1nc2ccc(OCc3cn([C@@H](Cc4ccccc4)C(=O)NCc4ccccn4)nn3)cc2s1` [DHK-2-62]: below 40%; for `NS(=O)(=O)c1nc2ccc(OCc3cn([C@@H](Cc4ccccc4)C(=O)NC4CCCCC4)nn3)cc2s1` [DHK-2-63]: below 40%.
For the molecule `NS(=O)(=O)c1nc2ccc(OCc3cn([C@@H](Cc4ccccc4)C(=O)NCC4CC4)nn3)cc2s1` [DHK-2-64], the inhibition at 1 µM is below 40%.
On the same count and under the same terms, the value for `NS(=O)(=O)c1nc2ccc(OCc3cn([C@@H](Cc4ccccc4)C(=O)NCCCO)nn3)cc2s1` [DHK-2-65] was below 40%; that for `CCOC(=O)CCN(Cc1ccco1)C(=O)[C@H](Cc1ccccc1)n1cc(COc2ccc3nc(S(N)(=O)=O)sc3c2)nn1` [DHK-2-67] was below 40%.
On the same count and under the same terms, the value for `NS(=O)(=O)c1nc2ccc(OCc3cn([C@@H](Cc4ccccc4)C(=O)N4CCN(CCO)CC4)nn3)cc2s1` [DHK-2-69] was below 40%; that for `NS(=O)(=O)c1nc2ccc(OCc3cn([C@@H](Cc4ccccc4)C(=O)N[C@@H]4c5ccccc5C[C@@H]4O)nn3)cc2s1` [DHK-2-70] was below 40%; that for `NS(=O)(=O)c1nc2ccc(OCc3cn([C@@H](Cc4ccccc4)C(=O)N4CCC(N5CCCC5)CC4)nn3)cc2s1` [DHK-2-72] was below 40%.
The same measure, in the same setting: the same measure for `Cn1c(CNC(=O)[C@H](Cc2ccccc2)n2cc(COc3ccc4nc(S(N)(=O)=O)sc4c3)nn2)nc2ccccc21` [DHK-2-73]: below 40%; for `NS(=O)(=O)c1nc2ccc(OCc3cn([C@@H](Cc4ccccc4)C(=O)NCCN4CCN(Cc5ccccc5)CC4)nn3)cc2s1` [DHK-2-74]: below 40%.

Staying with this experiment, now noted: Table 2, Libraries 4-7; sample concentrations 100 nM and 1000 nM, DNSA 200 μM; screening at 1 μM.
Regarding `COC(=O)C(C)NC(=O)[C@H](Cc1ccccc1)n1cc(COc2ccc3nc(S(N)(=O)=O)sc3c2)nn1` (stereo partly drawn) [DHK-2-61], the “In Vitro Binding Assay (Library Screening)” value is listed as “√”.
The same measure, in the same setting: the value for `Cc1onc(-c2ccccc2)c1CNC(=O)[C@H](Cc1ccccc1)n1cc(COc2ccc3nc(S(N)(=O)=O)sc3c2)nn1` [DHK-2-66] was “√ √”; that for `CCOC(=O)C1CCN(C(=O)[C@H](Cc2ccccc2)n2cc(COc3ccc4nc(S(N)(=O)=O)sc4c3)nn2)CC1` [DHK-2-68] was “√”; that for `NS(=O)(=O)c1nc2ccc(OCc3cn([C@@H](Cc4ccccc4)C(=O)NCC4COc5ccccc5O4)nn3)cc2s1` (stereo partly drawn) [DHK-2-71] was “√”.

The target of another experiment is T1, CA-IX. The experiment is described as follows: Binding affinity (Kd) determination for CA-IX inhibitors, DNSA fluorescence competition assay, Scatchard plots. The following applies: Table 3. The protocol: General. […] The human red blood cells were obtained from Research Blood Components, LLC. All absorbance measurements were performed on a SPECTRA MAX M2 plate reader at 25° C. The LC/MS analyses were performed on an Agilent 1100 series LC/MSD (SL) using a 30×2.1 mm Zorbax C8 column with a Phenomenex C18 pre-column. Compound detection was accomplished by electrospray mass spectroscopy in positive selected ion mode (LC/MS-SIM). The elution solvents were acetonitrile and water, contained 0.05% TFA. Nuclear magnetic resonance (NMR) spectra were obtained on a Bruker AMX 300 MHz spectrometer or a Varian 400. 19F NMR spectra were recorded on a Bruker AMX 282.35 MHz or a Varian 400 spectrometer. The mass spectra were recorded on an Agilent 1100 series LC/MSD with electrospray mass spectroscopic detection. Flash column chromatography was performed on Merck silica gel (40-63 μm) using the solvent system indicated. The radiochemical and chemical purities were analyzed by RP-HPLC.
General Procedure of Binding Affinity (Ka) Determination for CA-IX Inhibitors
The assay was based on the observation that the only fluorescence signal detected at 460 nm upon excitation at 290 nm, an absorption […] for DNSA, was that of the DNSA.CA complex. […] The latter were developed for each test compound using mass balance for calculating the concentration of CA bound to DNSA [DNSA.CA], bound to the non-fluorescent sample [CA.Inh] and free CA [CA] in solution. The Kd values were determined from Scatchard plots using the equation below as described by Whitesides et al. [CA.Inh]/[CA]tot.[Inh]=K11^inh−K11^inh{[CA.Inh]+[CA.DNSA]}/([CA]tot)
The terms [CA.DNSA], [CA.Inh], and free CA were calculated using the mass balance based on the known values for the dissociation constant of CA.DNSA and the total concentration of CA in each reaction.
By Kd is commonly meant the free concentration of one partner at which half of the binding sites on the other are occupied at equilibrium, for simple one-to-one binding. The low end stands for a tighter complex, the high end for a looser complex. `CC(C)C(C(=O)N[C@@H](Cc1ccc(OC(CO)CF)cc1)C(=O)O)n1cc(COc2ccc3nc(S(N)(=O)=O)sc3c2)nn1` (single isomer, unassigned) [GGC121A] registered a Kd of 11 nM.
On the same count and under the same terms, the same measure for `CC(C)C(C(=O)N[C@@H](Cc1ccc(OC(CO)CF)cc1)C(=O)O)n1cc(COc2ccc3nc(S(N)(=O)=O)sc3c2)nn1` (single isomer, unassigned) [GGC121B]: 13 nM.
On the same count and under the same terms, the same measure for `NS(=O)(=O)c1nc2cc(OCc3cn(C(CCO)C(=O)NC(CSCc4cccc(OCCF)c4)C(=O)O)nn3)ccc2s1` (single isomer, unassigned) [VM2-107a]: 10 nM; for `NS(=O)(=O)c1nc2cc(OCc3cn(C(CCO)C(=O)NC(CSCc4cccc(OCCF)c4)C(=O)O)nn3)ccc2s1` (single isomer, unassigned) [VM2-107b]: 5 nM.
Still for that read-out and setting: the same measure for `CC(C)C(C(=O)NC(COCc1cccc(OCCO)c1)C(=O)O)n1cc(COc2ccc3nc(S(N)(=O)=O)sc3c2)nn1` (single isomer, unassigned) [VM3-165A]: 5 nM; for `CC(C)C(C(=O)NC(COCc1cccc(OCCO)c1)C(=O)O)n1cc(COc2ccc3nc(S(N)(=O)=O)sc3c2)nn1` (single isomer, unassigned) [VM3-165B]: 11 nM; for `NS(=O)(=O)c1nc2ccc(OCc3cn(C(Cc4ccc(F)cc4)C(=O)NC(COCc4cccc(OCCO)c4)C(=O)O)nn3)cc2s1` (single isomer, unassigned) [VM3-167A]: 5 nM.
In turn, `NS(=O)(=O)c1nc2ccc(OCc3cn(C(Cc4ccc(F)cc4)C(=O)NC(COCc4cccc(OCCO)c4)C(=O)O)nn3)cc2s1` (single isomer, unassigned) [VM3-167B] showed a Kd of 10 nM.
Still for that read-out and setting: the value for `CC(C)C(C(=O)NC(Cc1ccc(OCC(O)CF)cc1)C(=O)O)n1cc(COc2ccc3nc(S(N)(=O)=O)sc3c2)nn1` (single isomer, unassigned) [VM4047a] was 5 nM; that for `CC(C)[C@H](C(=O)N[C@H](Cc1ccc(OCC(O)CF)cc1)C(=O)O)n1cc(COc2ccc3nc(S(N)(=O)=O)sc3c2)nn1` (single isomer, unassigned) [VM4047b] was 11 nM.
The same measure, in the same setting: the value for `NS(=O)(=O)c1nc2ccc(OCc3cn([C@@H](Cc4ccc(OCCF)cc4)C(=O)O)nn3)cc2s1` [BD2-09, (S)-3-(4-(2-fluoroethoxy)phenyl)-2-(4-((2-sulfamoylbenzo[d]thiazol-6-yloxy)methyl)-1H-1,2,3-triazol-1-yl)propanoic acid] was 17 nM; that for `NS(=O)(=O)c1nc2ccc(OCc3cn([C@@H](CCCCNC(=O)CCC(=O)O)C(=O)NCc4ccc(C(F)(F)F)cc4)nn3)cc2s1` [BD2-47, (S)-4-oxo-4-(6-oxo-5-(4-((2-sulfamoylbenzo[d]thiazol-6-yloxy)methyl)-1H-1,2,3-triazol-1-yl)-6-(4-(trifluoromethyl)benzylamino)hexylamino)butanoic acid] was 20 nM; that for `NS(=O)(=O)c1nc2ccc(OCc3cn(CC(=O)N(CC(=O)O)Cc4ccc(C(F)(F)F)cc4)nn3)cc2s1` [BD3-36, 2-(2-(4-((2-sulfamoylbenzo[d]thiazol-6-yloxy)methyl)-1H-1,2,3-triazol-1-yl)-N-(4-(trifluoromethyl)benzyl)acetamido)acetic acid] was 14 nM.
Still for that read-out and setting: the value for `NS(=O)(=O)c1nc2ccc(OCc3cn(CC(=O)N[C@H](CSCc4cccc(OCCn5cc(CCCF)nn5)c4)C(=O)O)nn3)cc2s1` [BW2-27, (S)-3-(3-(2-(4-(3-fluoropropyl)-1H-1,2,3-triazol-1-yl)ethoxy)benzylthio)-2-(2-(4-((2-sulfamoylbenzo[d]thiazol-6-yloxy)methyl)-1H-1,2,3-triazol-1-yl)acetamido)propanoic acid] was 10 nM; that for `COC(=O)[C@@H](CSCc1cccc(OCCOCCOCCF)c1)NC(=O)Cn1cc(COc2ccc3nc(S(N)(=O)=O)sc3c2)nn1` [BW2-41, (S)-methyl 3-(3-(2-(2-(2-fluoroethoxy)ethoxy)ethoxy)benzylthio)-2-(2-(4-((2-sulfamoylbenzo[d]thiazol-6-yloxy)methyl)-1H-1,2,3-triazol-1-yl)acetamido)propanoate] was 5 nM; that for `NS(=O)(=O)c1nc2ccc(OCc3cn(CC(=O)N[C@H](CSCc4cccc(OCCOCCOCCF)c4)C(=O)O)nn3)cc2s1` [BW2-45, (S)-3-(3-(2-(2-(2-fluoroethoxy)ethoxy)ethoxy)benzylthio)-2-(2-(4-((2-sulfamoylbenzo[d]thiazol-6-yloxy)methyl)-1H-1,2,3-triazol-1-yl)acetamido) propanoic acid] was 5 nM.
Consider `COC(=O)[C@H](Cc1ccc(C(F)(F)F)cc1)NC(=O)[C@H](C(C)C)n1cc(COc2ccc3nc(S(N)(=O)=O)sc3c2)nn1` [BW-96, (S)-methyl 2-((S)-3-methyl-2-(4-((2-sulfamoylbenzo[d]thiazol-6-yloxy)methyl)-1H-1,2,3-triazol-1-yl)butanamido)-3-(4-(trifluoromethyl)phenyl) propanoate], for which the Kd was 1.7 nM.
Same read-out and setting: the same measure for `CC1(C)O[C@@H](CF)[C@H](COc2ccc(CC(C(=O)NC(Cc3ccc(C(F)(F)F)cc3)C(=O)O)n3cc(COc4ccc5nc(S(N)(=O)=O)sc5c4)nn3)cc2)O1` (stereo partly drawn) [BW-139-1A]: 1.7 nM; for `CC1(C)O[C@@H](CF)[C@H](COc2ccc(CC(C(=O)NC(Cc3ccc(C(F)(F)F)cc3)C(=O)O)n3cc(COc4ccc5nc(S(N)(=O)=O)sc5c4)nn3)cc2)O1` (stereo partly drawn) [BW-369-1B]: 2.5 nM.
